Assay results: BindingDB's records for doi:10.1016/j.bmc.2011.05.013 (University of Auckland, 2011)

Test: Inhibition of recombinant perforin mediated lysis of human Jurkat cells pre-incubated for 30 mins with perforin followed by incubation with Jurkat cells at 37 degC for 4 hrs in presence of 0.1% BSA by [51Cr] release assay

IC50 [µM]	Compound
3.16	CCNC(=O)c1ccc(-c2c(C#N)c(N)n3c(nc4ccccc43)c2C#N)cc1
1.04	CNC(=O)c1ccc(-c2c(C#N)c(N)n3c(nc4ccccc43)c2C#N)cc1
3.53	Cc1cc2nc3c(C#N)c(-c4ccc(OCC(N)=O)cc4)c(C#N)c(N)n3c2cc1C
5.19	N#Cc1c(-c2ccc(OCC(N)=O)cc2)c(C#N)c2nc3ccccc3n2c1N
2.87	N#Cc1c(-c2ccc(OCCO)cc2)c(C#N)c2nc3ccccc3n2c1N
4.18	N#Cc1c(-c2ccc(C(=O)NCCCO)cc2)c(C#N)c2nc3ccccc3n2c1N
6.89	CN(C)C(=O)COc1ccc(-c2c(C#N)c(N)n3c(nc4ccccc43)c2C#N)cc1
3	N#Cc1c(-c2ccc(C(N)=O)cc2)c(C#N)c2nc3ccccc3n2c1N
5.67	N#Cc1c(-c2ccc(OCC(N)=O)cc2)c(C#N)c2nc3c(Cl)cccc3n2c1N
5.21	Cc1ccc2c(nc3c(C#N)c(-c4ccc(OCC(N)=O)cc4)c(C#N)c(N)n32)c1C
3.08	N#Cc1c(-c2ccc(C(=O)NCCO)cc2)c(C#N)c2nc3ccccc3n2c1N
7.44	CCNC(=O)COc1ccc(-c2c(C#N)c(N)n3c(nc4ccccc43)c2C#N)cc1
3.24	N#Cc1c(-c2ccc(C(=O)NCC(O)CO)cc2)c(C#N)c2nc3ccccc3n2c1N (configuration not stated)
13.2	CC(C)NC(=O)COc1ccc(-c2c(C#N)c(N)n3c(nc4ccccc43)c2C#N)cc1
4.56	CNC(=O)COc1ccc(-c2c(C#N)c(N)n3c(nc4ccccc43)c2C#N)cc1
13.9	CCCNC(=O)COc1ccc(-c2c(C#N)c(N)n3c(nc4ccccc43)c2C#N)cc1
5.14	Cc1cc2nc(C(C#N)=Cc3ccc(OCC(N)=O)cc3)[nH]c2cc1C
8.25	N#Cc1c(-c2ccc(OCC(=O)NCCO)cc2)c(C#N)c2nc3ccccc3n2c1N
10	N#Cc1c(-c2ccc(C(=O)NCCN3CCOCC3)cc2)c(C#N)c2nc3ccccc3n2c1N

IC50 [µM]	Compound
7.49	COc1cccc2c1nc1c(C#N)c(-c3ccc(OCC(N)=O)cc3)c(C#N)c(N)n12
6.87	Cc1cccc2c1nc1c(C#N)c(-c3ccc(OCC(N)=O)cc3)c(C#N)c(N)n12
6.72	N#CC(=Cc1ccc(OCC(N)=O)cc1)c1nc2cccc(Cl)c2[nH]1
> 20	CNC(=O)CCc1ccc(-c2c(C#N)c(N)n3c(nc4ccccc43)c2C#N)cc1
> 20	CN(C)C(=O)CCc1ccc(-c2c(C#N)c(N)n3c(nc4ccccc43)c2C#N)cc1
> 20	CC(O)CNC(=O)COc1ccc(-c2c(C#N)c(N)n3c(nc4ccccc43)c2C#N)cc1 (configuration not stated)
> 20	N#Cc1c(-c2ccc(OCC(=O)NCCCO)cc2)c(C#N)c2nc3ccccc3n2c1N
> 20	N#Cc1c(-c2ccc(OCC(=O)NCC(O)CO)cc2)c(C#N)c2nc3ccccc3n2c1N (configuration not stated)
> 20	CN(C)C(=O)c1ccc(-c2c(C#N)c(N)n3c(nc4ccccc43)c2C#N)cc1
> 20	CN(C)CCNC(=O)c1ccc(-c2c(C#N)c(N)n3c(nc4ccccc43)c2C#N)cc1
> 20	N#CC(=Cc1ccc(OCC(N)=O)cc1)c1nc2ccccc2[nH]1
> 20	COc1cccc2[nH]c(C(C#N)=Cc3ccc(OCC(N)=O)cc3)nc12
> 20	Cc1ccc2nc(C(C#N)=Cc3ccc(OCC(N)=O)cc3)[nH]c2c1C
10	N#Cc1c(-c2ccc(OCC(=O)NCCc3ccncc3)cc2)c(C#N)c2nc3ccccc3n2c1N
10.5	N#Cc1c(-c2ccc(C(=O)NCCc3ccncc3)cc2)c(C#N)c2nc3ccccc3n2c1N
> 20	Cc1cccc2[nH]c(C(C#N)=Cc3ccc(OCC(N)=O)cc3)nc12
5.55	CC(O)CNC(=O)c1ccc(-c2c(C#N)c(N)n3c(nc4ccccc43)c2C#N)cc1 (configuration not stated)
> 20	N#Cc1c(-c2ccc(C(=O)NCCN3CCCCC3)cc2)c(C#N)c2nc3ccccc3n2c1N
